From US20220267479A1, “POLYIODIDE BINDING COMPOUNDS AND METHODS OF USE THEREOF” (North Carolina State University, priority 2019, published 2022)
Several values for one entry are separate records, joined by “and”; a condition that tells them apart may be missing. Identical values can stand only once. Marks after values point to notes of the source that are not given here.

Assays:
Format in all cases: biochemical
rat liver homogenate = assay: Indigoid-dye formation in rat liver homogenate; settings: indoxyl 1 mM, 5% DMF, 37° C., 24 h; ε = 1.27 × 10^4 M^-1 cm^-1
Experimental: Finally, indigoid-dye formation was carried out in rat liver homogenate (Table 1, rightmost column).
Reactions in rat liver homogenate. An indoxyl compound in DMF (5 μL, 20 mM) was mixed with rat liver homogenate (95 μL). The reaction mixture was incubated at 37° C. for 24 h. After allowing to cool to room temperature, the reaction mixture was diluted with DMF (900 μL). The mixture was heated at 70° C. for 2 min and then centrifuged for 2 min. The supernatant was separated from any precipitate. This extraction procedure was repeated two or three times with DMF (100-500 μL). The combined supernatant (1500-1800 μL) was analyzed by absorption spectroscopy.

[1] = molecular target: T1, β-glucosidase from Agrobacterium (Agrobacterium sp., UniProt P12614); assay: Indigogenic reaction with β-glucosidase from Agrobacterium
T1 construct: purchased Megazyme; host or cells: recombinant
T1 sequence (P12614 1-459): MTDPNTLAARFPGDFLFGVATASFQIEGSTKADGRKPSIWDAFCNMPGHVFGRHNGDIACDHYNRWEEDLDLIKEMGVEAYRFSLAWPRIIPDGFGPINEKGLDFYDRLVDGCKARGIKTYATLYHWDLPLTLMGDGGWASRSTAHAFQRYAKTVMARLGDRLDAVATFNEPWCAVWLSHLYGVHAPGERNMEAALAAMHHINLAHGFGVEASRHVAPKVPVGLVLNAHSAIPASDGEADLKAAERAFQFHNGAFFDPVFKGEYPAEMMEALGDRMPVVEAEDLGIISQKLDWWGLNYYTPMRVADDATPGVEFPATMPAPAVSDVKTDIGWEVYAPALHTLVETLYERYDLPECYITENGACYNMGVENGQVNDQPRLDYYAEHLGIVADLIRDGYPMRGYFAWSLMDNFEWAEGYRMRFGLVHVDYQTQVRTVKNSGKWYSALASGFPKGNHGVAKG
Experimental: Next, the β-glucosidase from Agrobacterium sp. was investigated as the trigger enzyme for indigoid dye formation. […]
Reactions with β-glucosidase from Agrobacterium. An indoxyl compound in DMF (2 μL, 5 mM) and β-glucosidase from Agrobacterium in 10 mM phosphate buffer [2 μL, 10 μM, pH 7.0, containing 50 mM NaCl and 0.6 M (NH4)2SO4] were mixed with 50 mM phosphate buffer (96 μL, pH 7.0). The reaction mixture was incubated at 37° C. for 2 h and then centrifuged for 3 min. Any precipitate was separated from the supernatant and dissolved in DMF (200 μL). The resulting solution was analyzed by absorption spectroscopy. The experiment was repeated three times.

[2] = system: β-glucosidase from almonds; assay: Indigogenic reaction with β-glucosidase from almonds
Source text: With diverse glucosyl-indoxyl compounds in hand, we carried out a set of studies to examine indigoid-dye formation upon enzymatic cleavage of the glucosyl unit under physiological conditions. Altogether, 14 new (15, 16, 19-27, 30, 33, 41) and 2 known (1, 42) synthetic indoxyl-glucosides (lacking acetyl protecting groups) were examined in an effort to identify suitable combinations of substituents to support both bioconjugation and indigoid dye formation. In initial studies, β-glucosidase from almonds was employed to trigger indigoid dye formation (Table 1). Thus, a mixture of this enzyme (1 unit/mL) and an indoxyl β-glucoside (0.1 μmol, 1 mM) in acetate buffer (pH 5, containing 5% DMF) was incubated at 37° C. for 16-19 h. All indigoid dye was dissolved in each case for quantitative evaluation.
Reactions with β-glucosidase from almonds. An indoxyl compound in DMF (5 μL, 20 mM) and β-glucosidase from almonds in H2O (10 μL, 10 units/mL) were mixed with acetate buffer (85 μL, 50 mM, pH 5.0). The reaction mixture was incubated at 37° C. for 16-19 h and then allowed to cool to room temperature. DMF (300 μL for the reactions of 15, 16, 1, 19, 22, and 25; or 900 μL for the reactions of 42, 20, 21, 23, 24, 26, 27, 30, and 31, respectively) was added to dissolve any indigoid precipitate. The resulting solution was analyzed by absorption spectroscopy.

tritosomes = assay: Indigoid dye formation with tritosomes
Experimental: The results from the glucosidase survey prompted several further experiments. First, a parallel set of studies was carried out with inclusion of several oxidants commonly employed in histochemical studies, given that the indigoid dye forming process requires the presence of an oxidant. […] The activity of the β-glucosidase was affected only slightly in the presence of a non-ionic detergent. To verify that the results observed in Table 1 were reliable, a 5-mg scale reaction of 33 was carried out to isolate indigo 43, which was obtained in 66% yield (Scheme 7). The 66% isolated yield corresponded well with the enzymatic yield of […] (Table 1, entry 15).
General methods. β-Glucosidase from almonds (lyophilized powder, >2 units/mg solid) and peroxidase from horseradish were purchased from Sigma-Aldrich. O-Glucosidase from Agrobacterium sp. (recombinant, suspension in 3.2 M (NH4)2SO4) was purchased from Megazyme; the concentration in solution was determined by absorption spectroscopy with E^0.1%32 2.20 cm^−1 at 280 nm.^37 Tritosomes were purchased from XenoTech. Rat liver homogenate was purchased from MP Biomedicals.

[3] = molecular target: T1, β-glucosidase from Agrobacterium; assay: Enzyme-triggered oligomerization of bis(indoxyl-glucoside) 46
Experimental: Oligomerization of 46 was carried out by treatment with β-glucosidase from Agrobacterium (200 nM) in 10 mM phosphate buffer (pH 7) at 37° C. for 2-4 h (Scheme 9). Precipitation occurred during the reaction. After centrifugation, the precipitate was separated from the supernatant, washed with H2O, and dried to afford a blue solid.
The efficacy of the indigogenic oligomerization was examined under a variety of conditions. As shown in entries 1-4 in Table 2, the yield of indigoid dye in the supernatant versus precipitate reversed as the concentration of 46 was decreased from 300 to 10 μM, although the total yields were in the range 17-29%. While the reactions in entries 1-4 were carried out in phosphate buffer containing NaCl (0.05 M), those of entries 5 and 6 (with 300 and 50 μM of 46, respectively) were conducted in NaCl-free phosphate buffer. The use of NaCl-free phosphate buffer facilitated extraction of the indigoid dye in the supernatant for analysis.

[4] = indoxyl 100 μM, enzyme 200 nM, 0.05 M phosphate buffer pH 7.0, 2% DMF, 37° C., 2 h, n=3, ε = 1.27 × 10^4 M^-1 cm^-1
[5] = indoxyl 1 mM, enzyme 1 unit/mL, acetate buffer pH 5, 5% DMF, 37° C., 16-19 h, ε = 1.27 × 10^4 M^-1 cm^-1 (measured for 4)
[6] = as E4 but ε = 2.6 × 10^4 M^-1 cm^-1 measured for 43
[7] = entry 1: [46] 300 μM, 2 h, phosphate buffer containing NaCl (0.05M)
[8] = entry 2: [46] 100 μM, 3 h, phosphate buffer containing NaCl (0.05M)
[9] = entry 3: [46] 50 μM, 2 h, phosphate buffer containing NaCl (0.05M), repeated three times
[10] = entry 4: [46] 10 μM, 4 h, phosphate buffer containing NaCl (0.05M)
[11] = entry 5: [46] 300 μM, 3 h, NaCl-free phosphate buffer containing DMF (0.1-0.6%)
[12] = entry 6: [46] 50 μM, 3 h, NaCl-free phosphate buffer containing DMF (0.1-0.6%)
[13] = as E1 but ε = 2.6 × 10^4 M^-1 cm^-1 measured for 43

Compound	Yield (%) rat liver homogenate (rat liver homogenate) [%]	Yield (%) β-glucosidase from Agrobacterium [1, 4] [%]	Yield (%) β-glucosidase from almonds [2, 5] [%]	Yield (%) β-glucosidase from Agrobacterium [1, 6]	further results
5-bromo-4-chloroindoxyl β-glucoside [Indoxyl 42, reference compound]	65				Yield (%) β-glucosidase from Agrobacterium ([1]; as E4 but ε = 2.00 × 10^4 M^-1 cm^-1 reported for 5,5′-dibromo-4,4′-dichloroindigo): 116% and 116 ± 8^e %; Yield (%) β-glucosidase from almonds ([2]; as E1 but ε = 2.00 × 10^4 M^-1 cm^-1 reported for 5,5′-dibromo-4,4′-dichloroindigo): 74% and 74^e %
5-[(Benzylcarbamoyl)oxy)]-1H-indole-3-yl β-D-glucopyranoside [Indoxyl 16]	9				Indigoid dye formation with tritosomes (tritosomes): low yield of indigoid dye
COC(=O)COc1ccc2[nH]cc(O[C@@H]3O[C@H](CO)[C@@H](O)[C@H](O)[C@H]3O)c2c1Br [Indoxyl 23, 4-Bromo-5-(methoxycarbonyl)methoxy-1H-indol-3-yl β-D-glucopyranoside]	<5	84 ± 4	68		
COc1nc(Oc2c(Br)cc3[nH]cc(O[C@@H]4O[C@H](CO)[C@@H](O)[C@H](O)[C@H]4O)c3c2Br)nc(N2CCOCC2)n1 [Indoxyl 21, 4,6-Dibromo-5-[(4-methoxy-6-morpholino-1,3,5-triazin-2-yl)oxy]-1H-indole-3-yl β-D-glucopyranoside]	<5	63 ± 4		31 ± 2%	
COc1nc(Oc2ccc3[nH]cc(O[C@@H]4O[C@H](CO)[C@@H](O)[C@H](O)[C@H]4O)c3c2Br)nc(N2CCOCC2)n1 [Indoxyl 20, 4-Bromo-5-[(4-methoxy-6-morpholino-1,3,5-triazin-2-yl)oxy]-1H-indole-3-yl β-D-glucopyranoside]	<5	150 ± 3			
C#CCOc1ccc2[nH]cc(O[C@@H]3O[C@H](CO)[C@@H](O)[C@H](O)[C@H]3O)c2c1Br [Indoxyl 26, 4-Bromo-5-propargyloxy-1H-indol-3-yl β-D-glucopyranoside]	17	79 ± 1	56		
OC[C@H]1O[C@@H](Oc2c[nH]c3cc(Br)c(OCC4[C@H]5CCC#CCC[C@@H]45)c(Br)c23)[C@H](O)[C@@H](O)[C@@H]1O (stereo partly drawn) [Indoxyl 30, 5-{[(1R,8S,9s)-Bicyclo[6.1.0]non-4-yn-9-yl]methoxy}-4,6-dibromo-1H-indole-3-yl β-D-glucopyranoside]		21 ± 1		10% and 10 ± 0.4%	
O=S(=O)([O-])CCC[N+]1(CCCO)CCN(c2nc(OCCOCCOCCOc3c(Br)cc4[nH]cc(O[C@@H]5O[C@H](CO)[C@@H](O)[C@H](O)[C@H]5O)c4c3Br)nc(OCCOCCOCCOc3c(Br)cc4[nH]cc(O[C@@H]5O[C@H](CO)[C@@H](O)[C@H](O)[C@H]5O)c4c3Br)n2)CC1 [Indoxyl 46]					Total yields of indigoid dye (supernatant plus precipitate) ([3]; entries 1-4, [46] 300 to 10 μM): 17-29%; Yield of indigoid dye (%) precipitate [3, 7]: 11%; Yield of indigoid dye (%) supernatant [3, 7]: 6%; Yield of indigoid dye (%) precipitate [3, 8]: 14%; Yield of indigoid dye (%) supernatant [3, 8]: 10%; Yield of indigoid dye (%) precipitate [3, 9]: 16 ± 0.6^c %; Yield of indigoid dye (%) supernatant [3, 9]: 13 ± 0.4^c %; Yield of indigoid dye (%) precipitate [3, 10]: 6%; Yield of indigoid dye (%) supernatant [3, 10]: 22%; Yield of indigoid dye (%) precipitate [3, 11]: 13%; Yield of indigoid dye (%) supernatant [3, 11]: 13%; Yield of indigoid dye (%) precipitate [3, 12]: 8%; Yield of indigoid dye (%) supernatant [3, 12]: 19%
COC(=O)COc1ccc2[nH]cc(O[C@@H]3O[C@H](CO)[C@@H](O)[C@H](O)[C@H]3O)c2c1 [Indoxyl 22, 5-(Methoxycarbonyl)methoxy-1H-indol-3-yl β-D-glucopyranoside]	<5	30 ± 6	<1		
COC(=O)COc1c(Br)cc2[nH]cc(O[C@@H]3O[C@H](CO)[C@@H](O)[C@H](O)[C@H]3O)c2c1Br [Indoxyl 24, 4,6-Dibromo-5-(methoxycarbonyl)methoxy-1H-indol-3-yl β-D-glucopyranoside]	<5	209 ± 6	122	102 ± 3%	Yield (%) β-glucosidase from almonds [2, 13]: 59%
C#CCOc1ccc2[nH]cc(O[C@@H]3O[C@H](CO)[C@@H](O)[C@H](O)[C@H]3O)c2c1 [Indoxyl 25, 5-Propargyloxy-1H-indol-3-yl β-D-glucopyranoside]	11	37 ± 2	<5		
C#CCOc1c(Br)cc2[nH]cc(O[C@@H]3O[C@H](CO)[C@@H](O)[C@H](O)[C@H]3O)c2c1Br [Indoxyl 27, 4,6-Dibromo-5-propargyloxy-1H-indol-3-yl β-D-glucopyranoside]	50	184 ± 3	105	89 ± 2%	Yield (%) β-glucosidase from almonds [2, 13]: 51%
